Literature values as cited in PubChem BioAssay AID1259409 (Chemical Carcinogenesis Research Information System (CCRIS), 2018).
Several values for one entry are separate records, joined by “and”; a condition that tells them apart may be missing. Equal values may be shown once.

Tested on: rodent chemically induced tumor inhibition, incidence and multiplicity
Assay: CCRIS tumor inhibitor studies

For C=C1CC[C@H](O)C/C1=C/C=C1\CCC[C@]2(C)[C@@H]([C@H](C)CC[C@@H](O)C(C)(C)O)CC[C@@H]12, the “tumour outcome (control, treated, inhibition, significance)” value (Carcinogen: N-N-DIETHYLNITROSAMINE [55-18-5], N-METHYL-N-NITROSOUREA [684-93-5], N,N'-DIMETHYLHYDRAZINE [540-73-8], N-BUTYL-N-(4-HYD, Carcinogen: N-N-DIETHYLNITROSAMINE [55-18-5], N-METHYL-N-NITROSOUREA [684-93-5], N,N'-DIMETHYLHYDRAZINE [540-73-8], N-BUTYL-N-(4-HYD, Dose [Inhibitor]: 1 PPM IN DIET FOR 25 WK BEGINNING 1 WK POST LAST CARCINOGEN DOSE (STUDY DURATION: 30 WK), Route [Inhibitor]: ORAL, Species: RAT, Strain/Sex: F344/MALE, Target Tissue: Type of Lesion: COLON: ADENOCARCINOMA, Dose [Carcinogen]: 100 MG/KG BW DEN IP ONCE ON DAY 0, 20 MG/KG BW MNU IP 4X ON DAYS 2, 5, 8, 11, 40 MG/KG BW DMH SC ON DAYS 14, 17, 20, 23;, Dose [Carcinogen]: 100 MG/KG BW DEN IP ONCE ON DAY 0, 20 MG/KG BW MNU IP 4X ON DAYS 2, 5, 8, 11, 40 MG/KG BW DMH SC ON DAYS 14, 17, 20, 23;, Promoter: NONE) is listed as 14/18 (77.8%), 10/14 (71.4%), 8%, not significant, the “tumour outcome (control, treated, inhibition, significance)” value (Carcinogen: N-N-DIETHYLNITROSAMINE [55-18-5], N-METHYL-N-NITROSOUREA [684-93-5], N,N'-DIMETHYLHYDRAZINE [540-73-8], N-BUTYL-N-(4-HYD, Carcinogen: N-N-DIETHYLNITROSAMINE [55-18-5], N-METHYL-N-NITROSOUREA [684-93-5], N,N'-DIMETHYLHYDRAZINE [540-73-8], N-BUTYL-N-(4-HYD, Dose [Inhibitor]: 1 PPM IN DIET FOR 25 WK BEGINNING 1 WK POST LAST CARCINOGEN DOSE (STUDY DURATION: 30 WK), Route [Inhibitor]: ORAL, Species: RAT, Strain/Sex: F344/MALE, Target Tissue: Type of Lesion: COLON: ADENOMA, Dose [Carcinogen]: 100 MG/KG BW DEN IP ONCE ON DAY 0, 20 MG/KG BW MNU IP 4X ON DAYS 2, 5, 8, 11, 40 MG/KG BW DMH SC ON DAYS 14, 17, 20, 23;, Dose [Carcinogen]: 100 MG/KG BW DEN IP ONCE ON DAY 0, 20 MG/KG BW MNU IP 4X ON DAYS 2, 5, 8, 11, 40 MG/KG BW DMH SC ON DAYS 14, 17, 20, 23;, Promoter: NONE) is listed as 6/18 (33.3%), 3/14 (21.4%), 36%, not significant and the “tumour outcome (control, treated, inhibition, significance)” value (Carcinogen: N-N-DIETHYLNITROSAMINE [55-18-5], N-METHYL-N-NITROSOUREA [684-93-5], N,N'-DIMETHYLHYDRAZINE [540-73-8], N-BUTYL-N-(4-HYD, Carcinogen: N-N-DIETHYLNITROSAMINE [55-18-5], N-METHYL-N-NITROSOUREA [684-93-5], N,N'-DIMETHYLHYDRAZINE [540-73-8], N-BUTYL-N-(4-HYD, Dose [Inhibitor]: 5 PPM IN DIET FOR 25 WK BEGINNING 1 WK POST LAST CARCINOGEN DOSE (STUDY DURATION: 30 WK), Route [Inhibitor]: ORAL, Species: RAT, Strain/Sex: F344/MALE, Target Tissue: Type of Lesion: COLON: ADENOCARCINOMA, Dose [Carcinogen]: 100 MG/KG BW DEN IP ONCE ON DAY 0, 20 MG/KG BW MNU IP 4X ON DAYS 2, 5, 8, 11, 40 MG/KG BW DMH SC ON DAYS 14, 17, 20, 23;, Dose [Carcinogen]: 100 MG/KG BW DEN IP ONCE ON DAY 0, 20 MG/KG BW MNU IP 4X ON DAYS 2, 5, 8, 11, 40 MG/KG BW DMH SC ON DAYS 14, 17, 20, 23;, Promoter: NONE) is listed as 14/18 (77.8%), 5/14 (35.7%), 54%, p<0.05. For the same compound, the “tumour outcome (control, treated, inhibition, significance)” value (Carcinogen: N-N-DIETHYLNITROSAMINE [55-18-5], N-METHYL-N-NITROSOUREA [684-93-5], N,N'-DIMETHYLHYDRAZINE [540-73-8], N-BUTYL-N-(4-HYD, Carcinogen: N-N-DIETHYLNITROSAMINE [55-18-5], N-METHYL-N-NITROSOUREA [684-93-5], N,N'-DIMETHYLHYDRAZINE [540-73-8], N-BUTYL-N-(4-HYD, Dose [Inhibitor]: 5 PPM IN DIET FOR 25 WK BEGINNING 1 WK POST LAST CARCINOGEN DOSE (STUDY DURATION: 30 WK), Route [Inhibitor]: ORAL, Species: RAT, Strain/Sex: F344/MALE, Target Tissue: Type of Lesion: COLON: ADENOMA, Dose [Carcinogen]: 100 MG/KG BW DEN IP ONCE ON DAY 0, 20 MG/KG BW MNU IP 4X ON DAYS 2, 5, 8, 11, 40 MG/KG BW DMH SC ON DAYS 14, 17, 20, 23;, Dose [Carcinogen]: 100 MG/KG BW DEN IP ONCE ON DAY 0, 20 MG/KG BW MNU IP 4X ON DAYS 2, 5, 8, 11, 40 MG/KG BW DMH SC ON DAYS 14, 17, 20, 23;, Promoter: NONE) was 6/18 (33.3%), 0/14 (0.0%), 100%, not significant.

For CC(C)(C)c1cc(O)c(O)c(C(C)(C)C)c1, the “tumour outcome (control, treated, inhibition, significance)” value (Carcinogen: BENZO[A]PYRENE, 50-32-8, Dose [Inhibitor]: 0.03 MMOL/G OF DIET DAILY STARTING 7 D BEFORE AND CONTINUING THROUGH 3 D AFTER CARCINOGEN TREATMENT FOLLOWED BY OBSERVAT, Route [Inhibitor]: ORAL, Species: MOUSE, Strain/Sex: ICR/FEMALE, Target Tissue: Type of Lesion: FORESTOMACH: NEOPLASM, Dose [Carcinogen]: 1 MG IN 0.2 ML CORN OIL 2/WK FOR 4 WK, Promoter: NONE USED) is given as 100%, 75%, 25%, p<0.05 and 95%, 74%, 22%, not significant.

For N[C@@H](Cc1ccccc1)C(=O)O, the “tumour outcome (control, treated, inhibition, significance)” value (Carcinogen: N-METHYL-N'-NITRO-N-NITROSOGUANIDINE, 70-25-7, Dose [Inhibitor]: 0, 6% IN DIET FOR 26 WK ADMINISTERED POST CARCINOGEN DOSE (STUDY DURATION: 52 WK ), Route [Inhibitor]: ORAL, Species: RAT, Strain/Sex: WISTAR/MALE, Target Tissue: Type of Lesion: GLANDULAR STOMACH: ADENOCARCINOMA, Dose [Carcinogen]: 50 UG/ML DRINKING WATER FOR 26 WK) is given as 18/25 (72%), 9/25 (36%), 50%, not calculated.

In the case of Cc1cccc(C(=O)/C=C/c2cccc(O)c2)c1, the “tumour outcome (control, treated, inhibition, significance)” value (Carcinogen: 7,12-DIMETHYLBENZ[A]ANTHRACENE, 57-97-6, Dose [Inhibitor]: 0, 1.62 MICROMOLAR 2/WK FOR 18 WK APPLIED SIMULTANEOUSLY WITH PROMOTER DOSE (STUDY DURATION: 18 WK), Route [Inhibitor]: DERMAL, Species: MOUSE, Strain/Sex: ICR/FEMALE, Target Tissue: Type of Lesion: SKIN: TUMOR, Dose [Carcinogen]: 100 UG ONCE, Promoter: 12-O-TETRADECANOYLPHORBOL-13-ACETATE, 16561-29-8) is listed as 90%, 20%, 78%, not calculated.

For Cc1c[nH]c(=O)[nH]c1=O, the “tumour outcome (control, treated, inhibition, significance)” value (Carcinogen: 7,12-DIMETHYLBENZ[A]ANTHRACENE, 57-97-6, Dose [Inhibitor]: 1% IN 20% PROTEIN DIET AND 0.5% IN DRINKING WATER (STUDY DURATION: 150 D), Route [Inhibitor]: ORAL, Species: RAT, Strain/Sex: STRAIN-CB/FEMALE, Target Tissue: Type of Lesion: MAMMARY GLAND: TUMOR, Dose [Carcinogen]: 15 MG IN 1 ML ARACHIS OIL TWICE 14 D APART, Promoter: NONE USED) is listed as 11/11 (100%), 6/11 (55%), 45%, not calculated, the “tumour outcome (control, treated, inhibition, significance)” value (Carcinogen: 7,12-DIMETHYLBENZ[A]ANTHRACENE, 57-97-6, Dose [Inhibitor]: 1.5% IN 20% PROTEIN DIET (STUDY DURATION: 100 D), Route [Inhibitor]: ORAL, Species: RAT, Strain/Sex: STRAIN-CB/FEMALE, Target Tissue: Type of Lesion: MAMMARY GLAND: TUMOR, Dose [Carcinogen]: 15 MG IN 1 ML ARACHIS OIL THREE DOSES GIVEN 1/2 WK, Promoter: NONE USED) is listed as 18/18 (100%), 16/20 (80%), 20%, not calculated and the “tumour outcome (control, treated, inhibition, significance)” value (Carcinogen: NONE USED, Dose [Inhibitor]: 0.4% IN DRINKING WATER, STARTING AT 7-9 WK OF AGE AND CONTINUING FOR DURATION OF STUDY (STUDY DURATION: 10-12 MO), Route [Inhibitor]: ORAL, Species: MOUSE, Strain/Sex: STRAIN-A/MALE, FEMALE, Target Tissue: Type of Lesion: LUNG: ADENOMA, Promoter: NONE USED) is listed as 48%, 17%, 65%, p 0.02.
